# Patent publication US20240246946A1, “MODULATORS OF TREX1” (Constellation Pharmaceuticals, Inc., priority 2021, published 2024)
# Key:
# full length human TREX1 = molecular target: T1, full length human TREX1 (Homo sapiens, UniProt Q9NSU2); assay: hTREX1 Biochemical Assay (fluorescence, dsDNA substrate degradation); conditions: biochemical, read-out: hTREX1 IC50
# T1 construct: N-terminally His-Tev tagged full length human TREX1; made in house; host or cells: E. coli
# T1 sequence (Q9NSU2 1-314): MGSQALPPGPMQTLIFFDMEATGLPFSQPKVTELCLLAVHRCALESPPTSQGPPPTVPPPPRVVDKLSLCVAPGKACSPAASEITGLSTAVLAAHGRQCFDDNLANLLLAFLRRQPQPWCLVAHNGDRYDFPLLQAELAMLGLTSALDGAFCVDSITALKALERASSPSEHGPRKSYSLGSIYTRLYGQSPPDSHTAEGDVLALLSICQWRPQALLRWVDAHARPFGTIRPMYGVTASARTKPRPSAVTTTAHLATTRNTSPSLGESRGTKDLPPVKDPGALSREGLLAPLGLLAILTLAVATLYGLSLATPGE
# How it was run: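 Fluorescence rises as enzyme degrades a quenched TEX615-labelled dsDNA substrate (60 nM) in 50 mM Tris, 150 mM NaCl, 5 mM MgCl2, pH 7.4. Full-length His-Tev-tagged human TREX1, 4 pM, sits with compound 4 hours at 25° C before substrate; reaction 18 hours, stopped with EDTA.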
# full length mouse TREX1 = molecular target: T2, full length mouse TREX1 (Mus musculus, UniProt Q91XB0); assay: mTREX1 Biochemical Assay (fluorescence, dsDNA substrate degradation); conditions: biochemical, read-out: mTREX1 IC50
# T2 construct: N-terminally His-Tev tagged full length mouse TREX1; made in house; host or cells: E. coli
# T2 sequence (Q91XB0 1-314): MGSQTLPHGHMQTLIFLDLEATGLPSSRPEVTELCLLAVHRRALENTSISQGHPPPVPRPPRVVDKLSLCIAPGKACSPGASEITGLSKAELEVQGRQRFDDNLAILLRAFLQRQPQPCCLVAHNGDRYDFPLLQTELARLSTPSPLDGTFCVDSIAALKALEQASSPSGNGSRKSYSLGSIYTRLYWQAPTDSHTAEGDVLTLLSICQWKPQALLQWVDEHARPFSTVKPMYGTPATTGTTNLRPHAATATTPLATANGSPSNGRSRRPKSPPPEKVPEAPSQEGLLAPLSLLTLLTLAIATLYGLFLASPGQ
# How it was run: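 Reaction run 18 h at 25° C. with 60 nM TEX615/quencher-labelled dsDNA and 6 pM mouse TREX1 in Tris buffer (pH 7.4, 5 mM MgCl2, 1.0% DMSO), enzyme having sat 4 h with compound across 10 concentrations. EDTA quench; substrate degradation measured as fluorescence increase.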
# [1] = molecular target: T3, human TREX2 (residues M44-A279) (Homo sapiens, UniProt Q9BQ50); assay: hTREX2 Biochemical Assay (fluorescence, dsDNA substrate degradation); conditions: biochemical selectivity for hTREX1 vs hTREX2
# T3 construct: human TREX2 (residues M44-A279, expressed in E. coli); made in house; host or cells: E. coli
# T3 sequence (Q9BQ50 44-279 isoform Q9BQ50-1): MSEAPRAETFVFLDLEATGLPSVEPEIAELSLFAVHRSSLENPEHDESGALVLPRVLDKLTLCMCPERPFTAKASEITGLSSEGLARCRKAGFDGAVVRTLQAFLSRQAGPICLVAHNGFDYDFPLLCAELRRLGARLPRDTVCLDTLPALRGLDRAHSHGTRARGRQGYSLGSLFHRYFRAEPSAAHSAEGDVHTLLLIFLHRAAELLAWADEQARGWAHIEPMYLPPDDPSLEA
# How it was run: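 Fluorogenic dsDNA degradation read at 615 nm (570 nm excitation) after EDTA quench. Final 60 nM substrate, 50 pM His-Tev-tagged enzyme, 5 mM MgCl2, pH 7.4, 1.0% DMSO; 4 h compound–enzyme preincubation then 18 h reaction, both 25 °C; 10-point titration.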
# hTREX1 = molecular target: T4, hTREX1 (Homo sapiens, UniProt Q9NSU2); assay: hTREX1 HCT116 Cell Assay (HCT116 dual cells, Lucia luciferase reporter of Type I interferon induction); format: cell-based; conditions: TREX1i 4 h before pBR322/BstNI transfection, read after 48 h
# T4 construct: host or cells: HCT116 dual cells
# T4 sequence (Q9NSU2 1-314): T1 sequence (Q9NSU2 1-314)
# How it was run: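 Type I interferon induction read as secreted Lucia luciferase 48 h after transfecting pBR322/BstNI digest (1 ug/mL, 100 ng/well) into HCT116 dual reporter cells. Compound added 4 h before transfection at up to 0.1% DMSO; cells in DMEM/10% FBS/25 mM HEPES at 37 °C.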
compound,measurement,setting,value
"CC(c1nc(C(=O)Nc2cnoc2)c(O)c(=O)n1C)C(c1cnn(CC(F)F)c1)c1cc(F)ccc1C#N (single isomer, unassigned) [Example 102 D1E2]",IC50,full length human TREX1,< 1 nM
same,IC50,full length mouse TREX1,1 to 10 nM
same,hTREX1 vs hTREX2 selectivity,[1],B (B = 25 to 50-fold selective for hTREX1)
same,IC50,hTREX1,10 to 100 nM
"CC(c1nc(C(=O)Nc2cnoc2)c(O)c(=O)n1C)C(c1ccccc1Cl)c1nncn1C (single isomer, unassigned) [Example 152 D1E1]",IC50,full length human TREX1,> 10 nM
same,IC50,full length mouse TREX1,> 10 nM
same,hTREX1 vs hTREX2 selectivity,[1],B (B = 25 to 50-fold selective for hTREX1)
same,IC50,hTREX1,> 100 nM
"CC(c1nc(C(=O)Nc2cnoc2)c(O)c(=O)n1C)C(c1ccccc1C#N)c1c[nH]nc1F (single isomer, unassigned) [Example 127 D1E1]",IC50,full length human TREX1,< 1 nM
same,IC50,full length mouse TREX1,< 1 nM
same,hTREX1 vs hTREX2 selectivity,[1],B (B = 25 to 50-fold selective for hTREX1)
same,IC50,hTREX1,< 10 nM
"COCCn1cc(C(c2ccccc2C#N)C(C)c2nc(C(=O)Nc3cnoc3)c(O)c(=O)n2C)cn1 (single isomer, unassigned) [Example 9 D2E1]",IC50,full length human TREX1,1 to 10 nM
same,IC50,full length mouse TREX1,> 10 nM
same,hTREX1 vs hTREX2 selectivity,[1],C (C = >50 fold selective for hTREX1)
same,IC50,hTREX1,> 100 nM
"CC(c1nc(C(=O)Nc2cnoc2)c(O)c(=O)n1C)C(c1cnn(C)c1)c1ccccc1C#N (single isomer, unassigned) [Example 2 D2E2]",IC50,full length human TREX1,> 10 nM
same,IC50,full length mouse TREX1,> 10 nM
same,hTREX1 vs hTREX2 selectivity,[1],A (A = <25 fold selective for hTREX1)
same,IC50,hTREX1,> 100 nM
"CC(c1nc(C(=O)Nc2cnoc2)c(O)c(=O)n1C)C(c1cnn(C2COC2)c1)c1ccccc1C#N (single isomer, unassigned) [Example 106 D1E1]",IC50,full length human TREX1,< 1 nM
same,IC50,full length mouse TREX1,1 to 10 nM
same,hTREX1 vs hTREX2 selectivity,[1],B (B = 25 to 50-fold selective for hTREX1)
same,IC50,hTREX1,10 to 100 nM
"COCCn1cc(C(c2cc(F)ccc2C#N)C(C)c2nc(C(=O)Nc3cnoc3)c(O)c(=O)n2C)c(C)n1 (single isomer, unassigned) [Example 103 D2E1]",IC50,full length human TREX1,1 to 10 nM
same,IC50,full length mouse TREX1,> 10 nM
same,hTREX1 vs hTREX2 selectivity,[1],A (A = <25 fold selective for hTREX1)
same,IC50,hTREX1,> 100 nM
"COCCn1ncc(C(c2cc(F)ccc2C#N)C(C)c2nc(C(=O)Nc3cnoc3)c(O)c(=O)n2C)c1C (single isomer, unassigned) [Example 104 D1E1]",IC50,full length human TREX1,1 to 10 nM
same,IC50,full length mouse TREX1,1 to 10 nM
same,hTREX1 vs hTREX2 selectivity,[1],B (B = 25 to 50-fold selective for hTREX1)
same,IC50,hTREX1,> 100 nM
"Cc1nccc(C(c2ccccc2C#N)C(C)c2nc(C(=O)Nc3cnoc3)c(O)c(=O)n2C)n1 (single isomer, unassigned) [Example 83 D1E1]",IC50,full length human TREX1,< 1 nM
same,IC50,full length mouse TREX1,> 10 nM
same,hTREX1 vs hTREX2 selectivity,[1],C (C = >50 fold selective for hTREX1)
same,IC50,hTREX1,10 to 100 nM
"CC(c1nc(C(=O)Nc2cnoc2)c(O)c(=O)n1C)C(c1ccccc1C#N)c1c[nH]nc1F (single isomer, unassigned) [Example 127 D1E2]",IC50,full length human TREX1,1 to 10 nM
same,IC50,full length mouse TREX1,> 10 nM
same,hTREX1 vs hTREX2 selectivity,[1],B (B = 25 to 50-fold selective for hTREX1)
same,IC50,hTREX1,> 100 nM
"CC(c1nc(C(=O)Nc2cnoc2)c(O)c(=O)n1C)C(c1ccccc1C#N)c1ccnn1C (single isomer, unassigned) [Example 1 D1E1]",IC50,full length human TREX1,1 to 10 nM
same,IC50,full length mouse TREX1,1 to 10 nM
same,hTREX1 vs hTREX2 selectivity,[1],A (A = <25 fold selective for hTREX1)
same,IC50,hTREX1,10 to 100 nM
"Cc1nnc(C(c2ccccc2Cl)C(C)c2nc(C(=O)Nc3cnoc3)c(O)c(=O)n2C)o1 (single isomer, unassigned) [Example 156 D1E1]",IC50,full length human TREX1,> 10 nM
same,IC50,full length mouse TREX1,> 10 nM
same,hTREX1 vs hTREX2 selectivity,[1],A (A = <25 fold selective for hTREX1)
same,IC50,hTREX1,> 100 nM
"COCCCn1cc(C(c2ccccc2C#N)C(C)c2nc(C(=O)Nc3cnoc3)c(O)c(=O)n2C)cn1 (single isomer, unassigned) [Example 24 D1E1]",IC50,full length human TREX1,< 1 nM
same,IC50,full length mouse TREX1,< 1 nM
same,hTREX1 vs hTREX2 selectivity,[1],C (C = >50 fold selective for hTREX1)
same,IC50,hTREX1,< 10 nM
"CC(c1nc(C(=O)Nc2cnoc2)c(O)c(=O)n1C)C(c1cnn(CC2COC2)c1)c1ccccc1Cl (single isomer, unassigned) [Example 88 D1E1]",IC50,full length human TREX1,< 1 nM
same,IC50,full length mouse TREX1,1 to 10 nM
same,hTREX1 vs hTREX2 selectivity,[1],A (A = <25 fold selective for hTREX1)
same,IC50,hTREX1,> 100 nM
"Cc1ccn(C(c2ccccc2C#N)C(C)c2nc(C(=O)Nc3cnoc3)c(O)c(=O)n2C)n1 (single isomer, unassigned) [Example 132 D1E2]",IC50,full length human TREX1,< 1 nM
same,IC50,full length mouse TREX1,1 to 10 nM
same,hTREX1 vs hTREX2 selectivity,[1],C (C = >50 fold selective for hTREX1)
same,IC50,hTREX1,10 to 100 nM
"CC(c1nc(C(=O)Nc2cnoc2)c(O)c(=O)n1C)C(c1nnn(C)n1)c1ccccc1C#N (single isomer, unassigned) [Example 79 D1E2]",IC50,full length human TREX1,1 to 10 nM
same,IC50,full length mouse TREX1,> 10 nM
same,hTREX1 vs hTREX2 selectivity,[1],B (B = 25 to 50-fold selective for hTREX1)
same,IC50,hTREX1,> 100 nM
"Cc1nn(C)cc1C(c1cc(F)ccc1C#N)C(c1nc(C(=O)Nc2cnoc2)c(O)c(=O)n1C)C(F)(F)F (single isomer, unassigned) [Example 42 D1E2]",IC50,full length human TREX1,< 1 nM
same,IC50,full length mouse TREX1,1 to 10 nM
same,hTREX1 vs hTREX2 selectivity,[1],C (C = >50 fold selective for hTREX1)
same,IC50,hTREX1,10 to 100 nM
"Cc1ncc(C(c2ccccc2Cl)C(C)c2nc(C(=O)Nc3cnoc3)c(O)c(=O)n2C)nc1C (single isomer, unassigned) [Example 125 D2E1]",IC50,full length human TREX1,1 to 10 nM
same,IC50,full length mouse TREX1,> 10 nM
same,hTREX1 vs hTREX2 selectivity,[1],A (A = <25 fold selective for hTREX1)
same,IC50,hTREX1,> 100 nM
"CC(c1nc(C(=O)Nc2cnoc2)c(O)c(=O)n1C)C(c1cnn(C)c1)c1cc(F)c(F)cc1C#N (single isomer, unassigned) [Example 25 D1E1]",IC50,full length human TREX1,< 1 nM
same,IC50,full length mouse TREX1,1 to 10 nM
same,hTREX1 vs hTREX2 selectivity,[1],C (C = >50 fold selective for hTREX1)
same,IC50,hTREX1,< 10 nM
"COCCn1nc(C)c(C(c2cc(F)ccc2C#N)C(C)c2nc(C(=O)Nc3cnoc3)c(O)c(=O)n2C)c1C (single isomer, unassigned) [Example 110 D1E1]",IC50,full length human TREX1,< 1 nM
same,IC50,full length mouse TREX1,1 to 10 nM
same,hTREX1 vs hTREX2 selectivity,[1],C (C = >50 fold selective for hTREX1)
same,IC50,hTREX1,> 100 nM
